Patent publication US20050208597A1, “Microarray analysis of post-translational modifications” (The Board of Trustees of the Leland Stanford Junior …, priority 2004, published 2005)

Experiments:
Assay type in all cases: cell-based
[1] = system: PDK1 phosphorylation; assay: RPP microarray, phospho-specific antibody probing of cell lysates; conditions: Jurkat cells stimulated through CD28 in the presence of the inhibitor; lysates after 10 minutes; one of the 'other 3 kinases' (named)
Protocol: (§1) FIG. 2. Applications of reverse-phase protein microarrays. (A) Kinetics of PLCγ1 (Y783) phosphorylation in Jurkat T cells following stimulation with anti-CD3 (pink triangle), anti-CD28 (green circle), both antibodies (blue squares), or isotype control antibodies (empty squares) over 30 minutes. Left panel: Phosphorylation kinetics unadjusted for total PLCγ1 levels. Middle Panel: Total PLCγ1 levels. Right panel: Ratiometric data on phosphorylation kinetics (phospho-PLCγ1/total PLCγ1). See text for details. (B) Phosphorylation kinetics of four signaling proteins (PLCγ1, Akt, MEK1/2, and p44/42 MAPK) in wildtype Jurkat T cells (black square) and J.gamma1, a mutant Jurkat line deficient in PLCγ1 (empty circle), stimulated with both anti-CD3 and CD28 antibodies. […] Jurkats T cells were stimulated with either anti-CD3 or anti-CD28 antibodies in the presence of one of three kinase inhibitors (see text for details). Lysates were collected after 10 minutes of stimulation, spotted on slides, and probed with four phospho-specific antibodies. Representative spots of p-p44/42 MAPK and p-MEK1/2 are shown for anti-CD3 stimulated cells and p-Akt (Ser473) and p-PDK1 for anti-CD28 treated cells.
(§2) To fabricate the protein microarrays, we used a contact-printing robotic microarrayer to deliver nanoliter (˜6 nl) volumes of whole cell lysates onto nitrocellulose-coated slides. FAST slides (Schleicher and Schuell BioSciences, Dassel, Germany). Depending on the experimental setup, two different formats of FAST slides were used. In experiments where the number of samples was greater than the number of analytes measured, slides with a single pad capable of holding over 2000 lysate spots were used. In our screening experiments where the number of analytes exceeds the number of samples, we used slides carrying eight sectored pads or subarrays for multiplex analysis. Under our current configuration, a maximum of 24 spots can be fitted onto each individual pad (6 mm×6 mm).
(§3) For small-scale experiments, we used a precision 8-pin manual microarrayer system (Microcaster system from Schleicher & Schuell). […] The protein lysates dried within seconds of printing and were tightly bound to the nitrocellulose platform via electrostatic interactions.

[2] = system: Akt (Ser473) phosphorylation; assay: as above
Protocol: as §1, §2, §3

[3] = system: MEK1/2 phosphorylation; assay: as above
Protocol: as §1, §2, §3

[4] = system: p44/42 MAPK phosphorylation; assay: as above
Protocol: as §1, §2, §3

[5] = system: β-actin; assay: RPP microarray, phosphorylation-state independent antibody; conditions: PMA treated vs untreated Jurkat T cells
From the text: (§4) FIG. 1. Protein microarray performance characteristics and validation. (A) Four purified antigens spotted in triplicate over six 2-fold dilutions starting at 900 pg per spot and probed with their corresponding antibodies. (B) Quantitative comparison between Western immunoblotting and protein microarray for measuring Hsp70 induction in heat-shocked Jurkat T cells. (C) Detection of changes in phosphorylation in signaling proteins in PMA treated vs. untreated Jurkat T cells. Corresponding immunoblots of the same samples are shown on the right. Antibodies specific for p44/42 MAPK, MEK1/2 and Akt are phosphorylation-state dependent. Antibodies for SLP-76 and β-actin are not dependent on phosphorylation.
(§5) To fabricate the protein microarrays, we used a contact-printing robotic microarrayer to deliver nanoliter (˜6 nl) volumes of whole cell lysates onto nitrocellulose-coated slides. […] In experiments where the number of samples was greater than the number of analytes measured, slides with a single pad capable of holding over 2000 lysate spots were used. […]
(§6) For small-scale experiments, we used a precision 8-pin manual microarrayer system (Microcaster system from Schleicher & Schuell). The resulting features measured approximately 500 μm in diameter. […] Bound primary antibodies were detected with a horseradish peroxidase (HRP)-linked secondary antibody. […]

[6] = system: SLP-76; assay: as above; conditions: PMA treated vs untreated Jurkat T cells
From the text: as §4, §5, §6

[7] = Jurkat cells stimulated through CD3 in the presence of the inhibitor, lysates after 10 minutes
[8] = PMA treated vs untreated Jurkat T cells

N#CC(=C(/N)Sc1ccccc1N)/C(C#N)=C(\N)Sc1ccccc1N [U0126]
phosphorylation of PDK1 [1]: had no effect | phosphorylation of Akt (Ser473) ([2]; Jurkat cells stimulated through CD28 in the presence of the inhibitor, lysates after 10 minutes): had no effect | phosphorylation of MEK1/2 [3, 7]: had no effect | phosphorylation of p44/42 MAPK [4, 7]: specifically blocked

CCCCCCCCCCCCCC(=O)O[C@@H]1[C@@H](C)[C@@]2(O)[C@@H](C=C(CO)C[C@]3(O)C(=O)C(C)=C[C@@H]23)[C@@H]2C(C)(C)[C@]12OC(C)=O [PMA, phorbol 12-myristate 13-acetate]
abundance of β-actin [5]: no changes | abundance of SLP-76 [6]: no changes | phosphorylation of Akt/PKB [2, 8]: not significantly affected | phosphorylation of MEK1/2 [3, 8]: rapid phosphorylation | phosphorylation of p44/42 MAPK [4, 8]: rapid phosphorylation
